The source of these data is article PMC5462828 (Scientific Reports, 2017).

Series [1] has as its target T1, RXFP1 (Homo sapiens, UniProt Q9HBX9).
T1 sequence (Q9HBX9 1-757): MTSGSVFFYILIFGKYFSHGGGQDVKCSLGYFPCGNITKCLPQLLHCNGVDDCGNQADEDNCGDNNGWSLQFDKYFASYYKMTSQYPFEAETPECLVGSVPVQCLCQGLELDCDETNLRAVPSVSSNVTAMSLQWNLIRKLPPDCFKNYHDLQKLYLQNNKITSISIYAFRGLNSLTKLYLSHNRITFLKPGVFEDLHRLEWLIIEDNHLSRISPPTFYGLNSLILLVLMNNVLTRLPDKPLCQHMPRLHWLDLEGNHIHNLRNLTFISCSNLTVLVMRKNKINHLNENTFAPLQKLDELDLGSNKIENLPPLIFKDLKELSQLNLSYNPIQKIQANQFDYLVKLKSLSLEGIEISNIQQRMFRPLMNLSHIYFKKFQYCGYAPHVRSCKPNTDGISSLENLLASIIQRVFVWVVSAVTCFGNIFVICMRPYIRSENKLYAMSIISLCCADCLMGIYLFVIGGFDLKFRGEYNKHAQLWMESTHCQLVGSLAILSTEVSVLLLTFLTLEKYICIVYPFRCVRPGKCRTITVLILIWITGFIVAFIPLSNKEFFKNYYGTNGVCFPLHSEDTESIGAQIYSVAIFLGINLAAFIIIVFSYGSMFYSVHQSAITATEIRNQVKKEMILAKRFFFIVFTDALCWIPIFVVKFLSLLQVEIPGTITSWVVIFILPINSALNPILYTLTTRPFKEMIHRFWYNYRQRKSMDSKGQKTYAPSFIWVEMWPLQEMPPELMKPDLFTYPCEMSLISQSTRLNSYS
Nature of the series: cAMP accumulation in human primary vascular cells and cardiac fibroblasts. Type of series: cell-based. To be noted: for Emax: 30 min. Here is the method:
(§1) cAMP and cGMP accumulation was determined as previously described, [16]. Briefly, HEK293 cells were plated in 96-well plates (5 × 10^4 cells/well) and human primary cells were plated into 24-well plates (1 × 10^5 cells/well) and grown overnight to achieve a confluent monolayer. Prior to stimulation, HEK cells were serum-starved in DMEM containing 0.5% FBS v/v and primary cells were serum-starved in M199 medium for 4–6 hours. Where appropriate, cells were pre-incubated with mSIRK (5 μM, 30 min), mSIRK control peptide L9A (5 μM, 30 min), gallein (100 μM, 30 min), Wortmannin (100 nM, 30 min), NF023 (10 μM, 30 min) and NF449 (10 μM, 30 min). Levels of cAMP and cGMP were detected according to the manufacturer’s instructions (Perkin-Elmer, Australia).
On the technique in general: cAMP levels reflect the balance of adenylyl cyclase and phosphodiesterase activity.

For series [2], the system named is RXFP1. The series is described as above. Type of series: cell-based. The note with it: HUAEC, cells known not to express cell surface RXFP1; 30 min. Here is the method: as §1
On the set-up of series [3]: method as in PMID 23764525. The note with it: cited from earlier work.
The next series concerns mouse RXFP1. The note with it: cited from earlier work.

Read-outs that look alike come from different tables or passages of the source.

By Emax is commonly meant the maximal effect, on the per cent scale that the assay sets. `CC(C)Oc1ccccc1C(=O)Nc1ccccc1C(=O)Nc1cccc(S(=O)(=O)C(F)(F)F)c1` [ML290, 2-Isopropoxy-N-(2-(3-(trifluoromethylsulfonyl)phenylcarbamoyl)phenyl) benzamide]: the Emax was 11.7% at RXFP1 [1] (HUVEC, read-out: cAMP accumulation efficacy (Emax), HUVEC); 17.9% at RXFP1 [1] (read-out: cAMP accumulation efficacy (Emax), HCAEC); 11.9% on RXFP1 [1] (read-out: cAMP accumulation efficacy (Emax), HUASMC). Besides, the “potency for cAMP accumulation, less potent than H2 relaxin” value at RXFP1 [1] (human primary vascular cells) is 3 orders of magnitude. Moreover, the cAMP accumulation entry with RXFP1 [2] is on record as “did not cause cAMP accumulation”. Also, in series [3], the cytotoxicity entry is “little cytotoxicity”. In the series on mouse RXFP1, the “action at mouse RXFP1” value is given as “antagonist actions”. For the same compound, the “agonist action at the mouse orthologue of RXFP1” value with mouse RXFP1 is listed as “no agonist actions”.
